Earlier results on four molecules are cited in US20240408056A1, “METHODS FOR REPAIRING NERVE DAMAGE USING PKC ACTIVATING THERAPEUTIC AGENTS” (priority 2023, published 2024).

Read-outs that look alike come from different tables or passages of the source.

The target in this data set is PKC.
Setting [1] is: A-ring bryologs, read-out: affinity for PKC.

`CCCCCCCC(=O)OC1C(=CC(=O)OC)CC2CC(CO)OC(=O)CC(O)CCOC(CCCc3ccc(Br)cc3)CC3CCOC(C=CC(C)(C)C1(O)O2)O3` (centres unmarked) [bryolog 5]: the Ki under setting [1] is 1.9 nM.

In the case of `CCCCCCCC(=O)OC1C(=CC(=O)OC)CC2CC(CO)OC(=O)CC(O)CCOC(C(C)(C)C)CC3CCOC(C=CC(C)(C)C1(O)O2)O3` (centres unmarked) [bryolog 3], the Ki under setting [1] is 6.5 nM.

For the molecule `CCCCCCCC(=O)OC1C(=CC(=O)OC)CC2CC(CO)OC(=O)CC(O)CC3CCCC(CC4CCOC(C=CC(C)(C)C1(O)O2)O4)O3` (centres unmarked) [Analog 1], the Ki (Table 1, Bryologs, read-out: PKC Affinity) was 0.25 nM. In addition, for the setting “compared with Bryostatin-1 and the other bryologs”, the “affinity for PKC (in words)” value is listed as “highest affinity for PKC”.

For the molecule `CCCCCCCC(=O)OC1C(=CC(=O)OC)CC2CC(CO)OC(=O)CC(O)CCOC(c3ccccc3)CC3CCOC(C=CC(C)(C)C1(O)O2)O3` (centres unmarked) [bryolog 4], the Ki under setting [1] was 2.3 nM.
